Test results taken from ChEMBL document CHEMBL1150483, “4-oxygenated retinoids: unexpected chemopreventive potential for analogues originally synthesized as affinity labels” (1992).

Tests used:
Mus musculus [1] = species on record: Mus musculus; assay: Ability to inhibit tumor promoter-induced ornithine decarboxylase activity in mouse skin using 1.7 nM of protein; type: functional
Mus musculus [2] = species on record: Mus musculus; assay: Ability to inhibit tumor promoter-induced ornithine decarboxylase activity in mouse skin using 17 nM of protein; type: functional

Row | Structure (SMILES) | ODC Activity (Mus musculus [1]) | ODC Activity (Mus musculus [2])
1 | C=CC(=O)OC1CCC(C)(C)C(/C=C/C(C)=C/C=C/C(C)=C/C(=O)O)=C1C (stereo unspecified) | 3.5 (nM of CO2) 30min-1 (mg of protein)-1 | 2.4 (nM of CO2) 30min-1 (mg of protein)-1
2 | CC1=C(/C=C/C(C)=C/C=C/C(C)=C/C(=O)O)C(C)(C)CCC1OC(=O)CBr (stereo unspecified) | 2.3 (nM of CO2) 30min-1 (mg of protein)-1 | 2.5 (nM of CO2) 30min-1 (mg of protein)-1
3 | CC1=C(/C=C/C(C)=C/C=C/C(C)=C/C(=O)O)C(C)(C)CCC1 [TRETINOIN] | 2 (nM of CO2) 30min-1 (mg of protein)-1 | 1.9 (nM of CO2) 30min-1 (mg of protein)-1
